Where a name gives a salt, the structure may show the parent alone.

This assay relates to water hyacinth. Description: Experiment 5 foliar application to water hyacinths. Particulars: for Reproduction-inhibiting effect: 3 months; for Killing index: 21 days. Details: key to Killing index: 0 = no effect, 5 = death. Type of assay: in vivo, Eichhornia crassipes Solms. An excerpt:
The detail of the assessment made in the following Experiments of the invention was as follows:
Four months after treatment, evaluation was made for inhibition of reproduction expressed in terms of symbols ranging from (-) to (+++) where (-) means no reproduction, namely complete suppression of reproduction, (±) remarkable suppression of reproduction; (+) considerable suppression of reproduction; (++) medium supprestion of reproduction; and (+++) no suppression of reproduction.
Water was placed in 20 cm.×30 cm. plastic vessels and a liquid fertilizer was added thereto. Two water hyacinths were floated in each vessel.
0.1 or 0.2% aqueous solutions of each of the compounds of the invention listed in Table 7 were sprayed by foliar application in an amount of 100 liter per 10 are. As a surfactant, 0.1% of octylphenyl polyoxyethanol was added.
The killing index (0, no effect; 5, death) after 21 days and 3 months, and the reproduction-inhibiting effect (-, no reproduction; +++, maximum reproduction) after 3 months were determined.

Regarding `CP(=O)(O)CCC(N)C(=O)O` (racemic) [DL-AMPB diammonium salt], the Reproduction-inhibiting effect entry by setting is: (0.1%) “++”; (0.2%) “±”.

With `CP(=O)(O)CCC(N)C(=O)O` (racemic) [DL-AMPB dipotassium salt], the Reproduction-inhibiting effect entry runs as follows: (0.1%) “++”; (0.2%) “±”.

Take `CP(=O)(O)CCC(N)C(=O)O` (racemic) [DL-AMPB disodium salt]: the Reproduction-inhibiting effect entry (0.1%) is given as “++” and the Reproduction-inhibiting effect entry (0.2%) is recorded as “±”.

For `CP(=O)(O)CCC(N)C(=O)O` (racemic) [DL-AMPB mono-n-butylammonium salt], the Reproduction-inhibiting effect result was “++” (0.1%) and “±” (0.2%).

Regarding `CP(=O)(O)CCC(N)C(=O)O` (racemic) [DL-AMPB monodiethylammonium salt], the Reproduction-inhibiting effect entry reads like this: (0.1%) “++”; (0.2%) “±”.

In the case of `CP(=O)(O)CCC(N)C(=O)O` (racemic) [DL-AMPB monoisopropylammonium salt], the Reproduction-inhibiting effect result is, setting by setting: (0.1%) “++”; (0.2%) “±”.

As to `CP(=O)(O)CCC(N)C(=O)O` (racemic) [DL-AMPB monopotassium salt], the Reproduction-inhibiting effect entry is, setting by setting: (0.1%) “++”; (0.2%) “±”.

For `CP(=O)(O)CCC(N)C(=O)O` (racemic) [DL-AMPB, DL-2-amino-4-methylphosphinobutanoic acid], the Reproduction-inhibiting effect result by setting is: (0.1%) “++”; (0.2%) “±”.

For `CP(=O)(O)CC[C@H](N)C(=O)O` [L-AMPB diammonium salt], the Reproduction-inhibiting effect result was “±” (0.1%) and “-” (0.2%).

As for `CP(=O)(O)CC[C@H](N)C(=O)O` [L-AMPB dipotassium salt], the Reproduction-inhibiting effect result (0.1%) is “±” and the Reproduction-inhibiting effect entry (0.2%) is listed as “-”.

Turning to `CP(=O)(O)CC[C@H](N)C(=O)O` [L-AMPB disodium salt], the Reproduction-inhibiting effect result (0.1%) was “±” and the Reproduction-inhibiting effect result (0.2%) was “-”.

`CP(=O)(O)CC[C@H](N)C(=O)O` [L-AMPB mono-n-butylammonium salt]: the Reproduction-inhibiting effect result reads like this: (0.1%) “±”; (0.2%) “-”.

Consider `CP(=O)(O)CC[C@H](N)C(=O)O` [L-AMPB monodiethylammonium salt], for which the Reproduction-inhibiting effect result (0.1%) is “±” and the Reproduction-inhibiting effect entry (0.2%) is “-”.

As to `CP(=O)(O)CC[C@H](N)C(=O)O` [L-AMPB monoisopropylammonium salt], the Reproduction-inhibiting effect result is, setting by setting: (0.1%) “±”; (0.2%) “-”.

Turning to `CP(=O)(O)CC[C@H](N)C(=O)O` [L-AMPB monopotassium salt], the Reproduction-inhibiting effect entry (0.1%) is “±” and the Reproduction-inhibiting effect entry (0.2%) was “-”.

Turning to `CP(=O)(O)CC[C@H](N)C(=O)O` [L-AMPB, L-2-amino-4-methylphosphinobutanoic acid], the Reproduction-inhibiting effect result is recorded as “±” (0.1%) and “-” (0.2%).

In the case of `C[C@H](NC(=O)[C@H](C)NC(=O)[C@@H](N)CCP(C)(=O)O)C(=O)O` [SF-1293 diammonium salt], for the setting “0.1%”, the Reproduction-inhibiting effect entry is recorded as “+”. Also, under “0.2%”, the Reproduction-inhibiting effect result was “-” and the Killing index came to 4.5.

Turning to `C[C@H](NC(=O)[C@H](C)NC(=O)[C@@H](N)CCP(C)(=O)O)C(=O)O` [SF-1293 dipotassium salt], the Reproduction-inhibiting effect result reads like this: (0.1%) “+”; (0.2%) “-”. For the setting “0.2%”, the Killing index came out at 4.5.

Take `C[C@H](NC(=O)[C@H](C)NC(=O)[C@@H](N)CCP(C)(=O)O)C(=O)O` [SF-1293 disodium salt]: the Reproduction-inhibiting effect entry is, setting by setting: (0.1%) “+”; (0.2%) “-”. Also, the Killing index (0.2%) is on record as 4.5.

Consider `C[C@H](NC(=O)[C@H](C)NC(=O)[C@@H](N)CCP(C)(=O)O)C(=O)O` [SF-1293 mono-n-butylammonium salt], for which the Reproduction-inhibiting effect result (0.1%) was “+”. Under “0.2%”, the Reproduction-inhibiting effect result is given as “-” and the Killing index turned out to be 4.5.

As for `C[C@H](NC(=O)[C@H](C)NC(=O)[C@@H](N)CCP(C)(=O)O)C(=O)O` [SF-1293 monodiethylammonium salt], the Reproduction-inhibiting effect entry (0.1%) is “+”. Also, where the note is “0.2%”, the Reproduction-inhibiting effect result is “-” and the Killing index was 4.5.

In the case of `C[C@H](NC(=O)[C@H](C)NC(=O)[C@@H](N)CCP(C)(=O)O)C(=O)O` [SF-1293 monodiisopropylammonium salt], the Reproduction-inhibiting effect entry (0.1%) is given as “+”. Further, where the note is “0.2%”, the Reproduction-inhibiting effect result is given as “-” and the Killing index came to 4.5.

For `C[C@H](NC(=O)[C@H](C)NC(=O)[C@@H](N)CCP(C)(=O)O)C(=O)O` [SF-1293 monopotassium salt], the Reproduction-inhibiting effect result is, setting by setting: (0.1%) “+”; (0.2%) “-”. Under “0.2%”, this compound gave a Killing index of 4.5.

In the case of `C[C@H](NC(=O)[C@H](C)NC(=O)[C@@H](N)CCP(C)(=O)O)C(=O)O` [SF-1293, (L-2-amino-4-methylphosphinobutyryl)-L-alanyl-L-alanine], the Reproduction-inhibiting effect result (0.1%) is recorded as “+”. For the same compound, under “0.2%”, the Reproduction-inhibiting effect entry is “-” and the Killing index is recorded as 4.5.

The values are drawn from patent US4226610A, “Herbicidal compounds, preparation thereof and herbicides containing the same” (Meiji Selka Kaisha, Ltd., priority 1978, dated 1980).
